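How tested: cells in 96-well plates exposed to compound for 48 hours at five concentrations. Here, GI50 denotes the concentration required for 50% inhibition of growth.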 Active and inactive are the calls of the source. No stated cut-off is given here; in the data, active = GI50 up to about 1.1 µM and inactive = higher.
How the values were obtained:
Test in all cases: NCI tumour cell line growth inhibition, 48 h
T47D = system: T47D
BT-549 = system: BT-549
XF498 = system: XF498
SNB-78 = system: SNB-78
DMS-273 = system: DMS-273
DLD-1 = system: DLD-1
HOP-18 = system: HOP-18
DMS-114 = system: DMS-114

Row | SMILES | GI50 (T47D) | GI50 (BT-549) | also measured
1 | CC(=O)NCCC1CN(C(=O)/C=C\C#C[Si](C)(C)C)c2ccccc21 (stereo unspecified) | 23.3 µM (inactive) | 21 µM (inactive) | 
2 | O=c1[nH]c2ccsc2c(=O)n1COCc1ccccc1 |  | > 100 µM (inactive) | 
3 | CC1NC(=O)CC(c2ccccc2)N(N=O)C1c1ccccc1 (stereo unspecified) |  |  | GI50 (XF498): 25.8 µM (inactive); GI50 (SNB-78): 35.4 µM (inactive); GI50 (DMS-273): 26 µM (inactive); GI50 (DLD-1): 44.8 µM (inactive); GI50 (HOP-18): 52.2 µM (inactive)
4 | O=C1NC(=O)C2C(=O)NC(=O)C1C2(c1ccccc1)c1ccc(Cl)cc1 (stereo unspecified) |  |  | GI50 (XF498): > 100 µM (inactive); GI50 (SNB-78): > 100 µM (inactive); GI50 (DMS-273): > 100 µM (inactive); GI50 (DLD-1): > 100 µM (inactive)
5 | N[C@@H]1c2c(Br)sc(Br)c2[C@H](O)[C@@H]1O | > 100 µM (inactive) | > 100 µM (inactive) | 
6 | CNC(=O)OC(COC)CN1CCN(c2ccccc2C)CC1 (stereo unspecified) | > 10 µM (inactive) |  | 
7 | COC(=O)C1=C(O)C(C(=O)OC)C2CC(=O)CC1C2(C)C (stereo unspecified) | > 100 µM (inactive) | > 100 µM (inactive) | 
8 | N#Cc1ccccc1NC(=O)C(=O)c1c(O)c2ccccc2oc1=O | > 100 µM (inactive) | > 100 µM (inactive) | 
9 | COc1ccc(C2SCC(=O)N2NC(=O)c2ccc(NC(C)=O)cc2)c(OC)c1 (stereo unspecified) | 93.3 µM (inactive) | > 100 µM (inactive) | 
10 | ClCCCN(CCCCl)c1ccc(/C=N/c2cccc(Cl)c2)cc1 | 7.11 µM (inactive) |  | 
11 | CC1=NOC(=O)C1/N=N/c1ccc(Br)c(C)c1 (stereo unspecified) |  |  | GI50 (XF498): 17.6 µM (inactive); GI50 (SNB-78): 26.4 µM (inactive); GI50 (DMS-273): 20.2 µM (inactive); GI50 (DLD-1): 24.4 µM (inactive); GI50 (HOP-18): 3.31 µM (inactive); GI50 (DMS-114): 15.6 µM (inactive)
12 | CC1OC2OC3C(OCC(O)C3O)OC(=O)[C@]34CCC(C)(C)CC3C3=CCC5[C@@]6(C)C[C@H](O)[C@H](OC7OC(CO)C(O)C(O)C7OC7OCC(OC(=O)CC(C)(O)CC(=O)OC1C(O)C2O)C(O)C7O)[C@@](C)(CO)C6CC[C@@]5(C)[C@]3(C)CC4 (stereo partly specified) | 4.98 µM (inactive) | 10.2 µM (inactive) | 
13 | COc1ccc(/C=N/n2cnc3c(c2=O)S/C(=C2/SC(=S)N(c4ccc(C)cc4)C2=O)N3c2ccccc2)cc1 |  |  | GI50 (DMS-273): 38.9 µM (inactive); GI50 (DMS-114): 74.5 µM (inactive)
14 | CC(C)C[P+](c1ccccc1)(c1ccccc1)c1ccccc1 | 11.8 µM (inactive) | 4.75 µM (inactive) | 
15 | CCOC(=O)c1nc2ccccc2nc1Oc1ccc(OC)cc1 | > 100 µM (inactive) | > 100 µM (inactive) | 
16 | CCOC(=O)/C(=C\c1ccnc2ccccc12)P(=O)(OCC)OCC | 3.18 µM (inactive) | 2.16 µM (inactive) | 
17 | O=C(NCCCCCCNCc1cccc2ccccc12)Nc1cccc2ccccc12 | > 100 µM (inactive) | > 100 µM (inactive) | 
18 | O=C(CCN(C(=O)O)S(=O)(=O)c1ccc(NC(=O)c2ccccc2)cc1)NC1CCCCC1 |  |  | GI50 (XF498): > 100 µM (inactive); GI50 (SNB-78): > 100 µM (inactive); GI50 (DMS-273): 21.7 µM (inactive); GI50 (DLD-1): 62.5 µM (inactive); GI50 (HOP-18): > 100 µM (inactive); GI50 (DMS-114): > 100 µM (inactive)

Row | SMILES | GI50 (T47D) | GI50 (BT-549) | also measured
19 | CCC1(C(=O)OC(C)(C)C)OC12C(C)CCCC2C (stereo unspecified) | 32.9 µM (inactive) | > 100 µM (inactive) | 
20 | CC1=CC(=O)/C(=C/NC(=S)c2ccncc2)C(=O)O1 |  | > 100 µM (inactive) | 
21 | O=C1CCSSCCC(=O)NCCN1 | > 100 µM (inactive) | > 100 µM (inactive) | 
22 | C/C(=C\COc1ccc2ccc(=O)oc2c1)CCC(=O)C(C)(C)O | 29.9 µM (inactive) | 18.1 µM (inactive) | 
23 | CC(=O)OCC1OC(n2cc([N+](=O)[O-])c(=O)[nH]c2=O)C(OC(C)=O)C(OC(C)=O)C1OC(C)=O (stereo unspecified) |  |  | GI50 (XF498): > 100 µM (inactive); GI50 (DMS-273): > 100 µM (inactive); GI50 (DLD-1): > 100 µM (inactive); GI50 (HOP-18): 43.2 µM (inactive); GI50 (DMS-114): > 100 µM (inactive)
24 | COC(=O)C1Cc2c(OC)ccc(OC)c2C(O)C1C(=O)OC (stereo unspecified) | > 100 µM (inactive) |  | 
25 | CCOC(=O)Cc1csc2[n+]1C(=O)/C(=C/c1cccc(OC)c1O)S2 | 36.3 µM (inactive) | 13.8 µM (inactive) | 
26 | CCOC(=O)C1=CC(C)(C(=O)OCC)Nc2c(nc(OC)[nH]c2=O)N1 (stereo unspecified) | > 10 µM (inactive) |  | 
27 | CCOC(=O)C1=C(N)N(c2ccccc2)/C(=C(/C#N)c2nc3ccccc3[nH]2)S1 |  |  | GI50 (XF498): > 100 µM (inactive); GI50 (SNB-78): > 100 µM (inactive); GI50 (DMS-273): > 100 µM (inactive); GI50 (DLD-1): > 100 µM (inactive)
28 | C=C1C(=O)C23C(O)CC4C5(C)CCCC4(C(O)OC5)C2C(OC(C)=O)CC1C3O (stereo unspecified) |  |  | GI50 (SNB-78): 6.03 µM (inactive); GI50 (DMS-273): 17.9 µM (inactive); GI50 (DLD-1): 5.06 µM (inactive); GI50 (HOP-18): 16.7 µM (inactive); GI50 (DMS-114): 4.51 µM (inactive)
29 | COc1ccc(CC2COc3cc(OC)cc(OC)c3C2=O)cc1 (stereo unspecified) | 16.7 µM (inactive) | 44.2 µM (inactive) | 
30 | COc1cc([N+](=O)[O-])c(S(=O)(=O)O)cc1-n1nc(-c2ccccc2)n[n+]1-c1cc(S(=O)(=O)[O-])c([N+](=O)[O-])cc1OC | > 100 µM (inactive) |  | 
31 | O=S(=O)(O)c1cc(/N=[N+](\[O-])c2cc(S(=O)(=O)O)c3ccccc3c2)cc2ccccc12 | > 100 µM (inactive) | 19.5 µM (inactive) | 
32 | CS(=O)(=O)N1CC(CCl)c2ccc(O)cc21 (stereo unspecified) | 7.4 µM (inactive) | 2.02 µM (inactive) | 
33 | Oc1ccc(-c2nc3ccc(Br)cc3s2)cc1 |  | 18.1 µM (inactive) | 
34 | CC(=O)N/C=C/c1cc(O)ccc1O |  |  | GI50 (XF498): 18.1 µM (inactive); GI50 (SNB-78): > 47.8 µM (inactive); GI50 (DMS-273): > 67.5 µM (inactive); GI50 (DLD-1): 27.2 µM (inactive); GI50 (HOP-18): 16.4 µM (inactive)
35 | Cc1ccc2c(c1)[n+]([O-])c(N)n[n+]2[O-] | 93.5 µM (inactive) | > 100 µM (inactive) | 
